Data published in ChEMBL document CHEMBL1201862, “PubChem BioAssay data set” (2004).
Calls of active or inactive are those of the source.

What was measured:
[1] = biological target: T1, High affinity choline transporter 1 (Homo sapiens, UniProt Q9GZV3); test: CHT inhibitors, dose response, cell-based, 5-point CRC, membrane potential dye (AID 504840); assay type: functional
T1 sequence (Q9GZV3 whole entry): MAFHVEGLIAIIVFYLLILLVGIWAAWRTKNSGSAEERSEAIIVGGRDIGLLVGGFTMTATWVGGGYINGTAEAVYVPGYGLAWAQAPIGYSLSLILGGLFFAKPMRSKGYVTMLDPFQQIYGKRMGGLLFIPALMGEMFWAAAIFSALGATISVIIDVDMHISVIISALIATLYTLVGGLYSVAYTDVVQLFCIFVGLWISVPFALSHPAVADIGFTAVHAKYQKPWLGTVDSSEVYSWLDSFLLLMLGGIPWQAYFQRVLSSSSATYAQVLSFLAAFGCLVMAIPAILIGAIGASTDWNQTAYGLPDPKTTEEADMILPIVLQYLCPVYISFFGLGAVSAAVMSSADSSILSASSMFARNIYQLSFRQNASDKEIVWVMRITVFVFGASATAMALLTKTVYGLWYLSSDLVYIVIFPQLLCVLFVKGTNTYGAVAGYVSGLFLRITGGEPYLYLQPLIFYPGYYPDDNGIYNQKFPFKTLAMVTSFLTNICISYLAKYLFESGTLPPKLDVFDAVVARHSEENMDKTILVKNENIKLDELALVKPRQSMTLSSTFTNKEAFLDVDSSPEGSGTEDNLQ

[2] = biological target: T2, Sentrin-specific protease 8 (Homo sapiens, UniProt Q96LD8); assay type: functional
T2 sequence (Q96LD8 whole entry): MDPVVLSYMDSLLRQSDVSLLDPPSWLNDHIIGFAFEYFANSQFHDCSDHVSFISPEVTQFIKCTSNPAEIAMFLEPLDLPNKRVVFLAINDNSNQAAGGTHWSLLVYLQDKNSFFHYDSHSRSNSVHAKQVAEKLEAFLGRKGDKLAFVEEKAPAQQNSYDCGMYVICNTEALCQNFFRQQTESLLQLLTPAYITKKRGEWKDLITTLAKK

[3] = biological target: T2, Sentrin-specific protease 8; assay type: functional; remark: listed apart in the source
[4] = biological target: T3, Short transient receptor potential channel 4 (Mus musculus, UniProt Q9QUQ5); test: mouse TRPC4 channel activators, dose response, cell-based, HEK293 TRPC4/mu-opioid, Fluo-4 calcium (AID 434937); assay type: functional
T3 sequence (Q9QUQ5 whole entry): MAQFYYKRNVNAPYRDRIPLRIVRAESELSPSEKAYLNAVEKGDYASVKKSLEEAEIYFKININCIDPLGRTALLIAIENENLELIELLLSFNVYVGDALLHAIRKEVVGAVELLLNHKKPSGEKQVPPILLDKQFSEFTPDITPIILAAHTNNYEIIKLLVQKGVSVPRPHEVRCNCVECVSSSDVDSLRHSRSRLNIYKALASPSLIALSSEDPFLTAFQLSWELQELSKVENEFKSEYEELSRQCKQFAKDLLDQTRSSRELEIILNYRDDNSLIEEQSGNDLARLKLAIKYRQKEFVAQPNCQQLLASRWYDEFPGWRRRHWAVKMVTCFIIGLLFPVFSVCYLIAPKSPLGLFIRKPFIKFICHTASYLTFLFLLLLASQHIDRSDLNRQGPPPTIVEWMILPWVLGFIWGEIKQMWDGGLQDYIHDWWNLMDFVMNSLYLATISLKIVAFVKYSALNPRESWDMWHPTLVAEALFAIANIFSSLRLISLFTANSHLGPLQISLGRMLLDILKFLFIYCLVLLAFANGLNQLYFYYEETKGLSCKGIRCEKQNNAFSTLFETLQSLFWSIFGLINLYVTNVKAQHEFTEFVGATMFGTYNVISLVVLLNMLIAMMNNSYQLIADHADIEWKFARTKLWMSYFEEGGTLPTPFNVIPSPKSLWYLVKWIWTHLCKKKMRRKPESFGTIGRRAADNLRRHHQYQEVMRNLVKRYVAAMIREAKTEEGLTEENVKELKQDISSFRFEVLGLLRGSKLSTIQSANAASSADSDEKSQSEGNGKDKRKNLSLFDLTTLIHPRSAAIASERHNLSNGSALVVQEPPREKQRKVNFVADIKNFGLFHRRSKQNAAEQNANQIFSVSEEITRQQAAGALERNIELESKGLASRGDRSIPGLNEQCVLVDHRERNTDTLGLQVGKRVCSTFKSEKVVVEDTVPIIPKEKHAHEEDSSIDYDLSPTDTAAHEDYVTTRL

Genome polyprotein = Genome polyprotein (dengue virus type 2, UniProt P29990); test: Dengue-2 NS5 methyltransferase inhibitors, primary screen, biochemical, confirmation dose response (AID 588689); assay type: functional
Genome polyprotein, sequence (P29990 2492-3391 limits assumed): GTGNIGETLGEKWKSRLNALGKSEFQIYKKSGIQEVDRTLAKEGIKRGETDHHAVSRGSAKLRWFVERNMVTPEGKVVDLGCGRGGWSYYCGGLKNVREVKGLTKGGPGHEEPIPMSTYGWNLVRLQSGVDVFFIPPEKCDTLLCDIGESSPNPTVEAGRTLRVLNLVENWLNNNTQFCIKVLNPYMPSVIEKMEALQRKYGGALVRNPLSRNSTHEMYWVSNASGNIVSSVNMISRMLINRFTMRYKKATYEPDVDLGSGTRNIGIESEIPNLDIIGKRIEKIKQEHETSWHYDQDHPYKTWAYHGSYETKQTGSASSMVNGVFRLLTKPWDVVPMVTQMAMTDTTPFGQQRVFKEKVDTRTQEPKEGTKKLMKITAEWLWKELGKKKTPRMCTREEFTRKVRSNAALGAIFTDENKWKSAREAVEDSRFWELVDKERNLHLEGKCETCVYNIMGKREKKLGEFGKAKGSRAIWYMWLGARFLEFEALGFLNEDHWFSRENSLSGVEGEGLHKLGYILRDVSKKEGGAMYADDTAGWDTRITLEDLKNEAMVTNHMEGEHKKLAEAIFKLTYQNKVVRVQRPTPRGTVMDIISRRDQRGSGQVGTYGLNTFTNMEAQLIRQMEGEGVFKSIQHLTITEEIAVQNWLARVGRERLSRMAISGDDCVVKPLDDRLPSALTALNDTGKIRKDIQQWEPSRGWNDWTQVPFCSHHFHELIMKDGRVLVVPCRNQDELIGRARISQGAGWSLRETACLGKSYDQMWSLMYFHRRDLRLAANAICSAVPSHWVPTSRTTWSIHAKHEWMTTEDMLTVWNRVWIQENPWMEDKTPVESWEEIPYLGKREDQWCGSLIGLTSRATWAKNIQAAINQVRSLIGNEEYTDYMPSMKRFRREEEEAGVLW

[5] = biological target: T4, Corticotropin-releasing factor receptor 2/Corticotropin-releasing factor-binding protein (Homo sapiens, UniProt P24387+Q13324); test: Dose Response confirmation of uHTS hits for small molecule antagonists of the CRF-binding protein and CRF-R2 receptor complex.; assay type: functional; details: read-out: IC50_Mean
T4 sequence (Q13324 whole entry): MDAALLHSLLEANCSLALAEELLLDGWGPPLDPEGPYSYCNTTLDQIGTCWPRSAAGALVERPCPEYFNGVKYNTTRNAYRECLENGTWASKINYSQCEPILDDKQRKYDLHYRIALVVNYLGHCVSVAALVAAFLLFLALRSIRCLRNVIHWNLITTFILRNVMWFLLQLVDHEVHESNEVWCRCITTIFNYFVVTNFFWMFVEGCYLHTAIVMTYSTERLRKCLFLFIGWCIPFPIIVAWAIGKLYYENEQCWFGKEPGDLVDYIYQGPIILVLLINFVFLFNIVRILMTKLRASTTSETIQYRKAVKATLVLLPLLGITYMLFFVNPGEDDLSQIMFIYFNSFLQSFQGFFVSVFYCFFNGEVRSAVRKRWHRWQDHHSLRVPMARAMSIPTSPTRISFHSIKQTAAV
T4 sequence (P24387 whole entry): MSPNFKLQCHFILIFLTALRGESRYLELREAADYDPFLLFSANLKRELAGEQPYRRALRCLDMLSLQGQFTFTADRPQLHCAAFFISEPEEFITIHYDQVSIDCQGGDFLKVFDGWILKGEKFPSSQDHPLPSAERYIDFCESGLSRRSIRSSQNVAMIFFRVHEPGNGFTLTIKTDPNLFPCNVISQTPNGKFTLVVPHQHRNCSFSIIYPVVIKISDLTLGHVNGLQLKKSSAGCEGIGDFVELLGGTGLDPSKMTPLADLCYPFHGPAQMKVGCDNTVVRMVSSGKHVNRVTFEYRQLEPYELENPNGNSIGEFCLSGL

[6] = biological target: T4, Corticotropin-releasing factor receptor 2/Corticotropin-releasing factor-binding protein; test: activators of CRF receptor 2 with binding protein – uHTS hits, confirmation (AID 602473); assay type: functional; details: read-out: EC50_Mean
[7] = CRF-BP/CRF-R2 complex antagonists, dose response, cell-based, uHTS hits, 384-well (AID 651639); assay type: functional, Homo sapiens; details: read-out: IC50_Mean
[8] = inhibitors of intracellular T. cruzi replication, confirmation, NIH3T3 host cells, beta-gal luminescence (AID 2044); assay type: functional, cell-based;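 note: intracellular parasites grown in NIH/3T3 mouse fibroblasts as host cells; luminescent beta-galactosidase reporter signal from transgenic T. cruzi replicating inside host cells; inhibitors lower the luminescence signal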
[9] = growth suppression of PTEN-null colon cells, dose response, cell-based, HCT116 PTEN knockout (AID 1047); assay type: functional;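 note: HCT116 colon tumor cells with PTEN knocked out; cells exposed to compound for 60 hours before readout; potency for loss of cell viability measured by luminescence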
[10] = cytotoxicity toward NIH3T3 fibroblasts, dose response, counter-screen, cell-based, ATP luminescence, mouse fibroblasts (AID 2010); assay type: functional;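 note: cells exposed to compound for about 90 hours before reading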
[11] = growth suppression of beta-catenin-knockout colon cells, dose response, cell-based, HCT116, human colon tumor (AID 1045); assay type: functional;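 note: HCT116 colon tumor cells with beta catenin knocked out; cells exposed to compound for 60 hours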
[12] = THP-1 cell cytotoxicity, dose response, cytotoxicity control for non-replicating M. tuberculosis project (AID 489025); assay type: functional
[13] = HepG2 cell cytotoxicity, dose response, cytotoxicity control for non-replicating M. tuberculosis project (AID 489018); assay type: functional; details: Mycobacterium tuberculosis
[14] = Vero E6 cell cytotoxicity, dose response, cytotoxicity control for non-replicating M. tuberculosis project, secondary assay (AID 492998); assay type: functional, VeroE6; details: Vero C1008
[15] = biological target: T5, Heat shock factor protein 1 (Mus musculus, UniProt P38532); test: HSF1 potentiators in luciferase reporter cells, confirmation, cell-based, NIH3T3, luminescence, dose retest (AID 435004); assay type: functional;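 note: stress induced by proteasome inhibitor MG132 added 30 min after compound; luciferase reporter driven by HSF1 response element in NIH3T3 cells; actives raise luminescence as potentiators of the MG132 stress response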
T5 sequence (P38532 whole entry): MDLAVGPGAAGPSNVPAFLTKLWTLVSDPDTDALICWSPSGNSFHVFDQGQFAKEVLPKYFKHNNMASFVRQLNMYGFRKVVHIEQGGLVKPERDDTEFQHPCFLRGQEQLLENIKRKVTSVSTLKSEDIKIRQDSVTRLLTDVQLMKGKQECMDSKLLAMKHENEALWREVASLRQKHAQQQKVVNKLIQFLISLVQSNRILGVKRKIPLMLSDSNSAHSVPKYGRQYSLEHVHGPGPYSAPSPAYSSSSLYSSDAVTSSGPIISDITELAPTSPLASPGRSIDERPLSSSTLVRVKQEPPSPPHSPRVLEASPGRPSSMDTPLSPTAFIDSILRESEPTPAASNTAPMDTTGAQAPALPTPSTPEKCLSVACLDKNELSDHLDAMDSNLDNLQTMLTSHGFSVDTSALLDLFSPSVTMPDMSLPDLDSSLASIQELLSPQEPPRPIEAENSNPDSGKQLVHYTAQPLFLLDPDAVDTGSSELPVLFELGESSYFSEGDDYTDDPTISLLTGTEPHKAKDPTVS

[16] = biological target: T6, Microphthalmia-associated transcription factor (Homo sapiens, UniProt O75030); test: TRPM1 promoter luciferase signal decrease, dose response, MITF inhibitor project, cell-based, SK-MEL-5, cherry-picked, set 3 (AID 493073); assay type: functional
T6 sequence (O75030 whole entry): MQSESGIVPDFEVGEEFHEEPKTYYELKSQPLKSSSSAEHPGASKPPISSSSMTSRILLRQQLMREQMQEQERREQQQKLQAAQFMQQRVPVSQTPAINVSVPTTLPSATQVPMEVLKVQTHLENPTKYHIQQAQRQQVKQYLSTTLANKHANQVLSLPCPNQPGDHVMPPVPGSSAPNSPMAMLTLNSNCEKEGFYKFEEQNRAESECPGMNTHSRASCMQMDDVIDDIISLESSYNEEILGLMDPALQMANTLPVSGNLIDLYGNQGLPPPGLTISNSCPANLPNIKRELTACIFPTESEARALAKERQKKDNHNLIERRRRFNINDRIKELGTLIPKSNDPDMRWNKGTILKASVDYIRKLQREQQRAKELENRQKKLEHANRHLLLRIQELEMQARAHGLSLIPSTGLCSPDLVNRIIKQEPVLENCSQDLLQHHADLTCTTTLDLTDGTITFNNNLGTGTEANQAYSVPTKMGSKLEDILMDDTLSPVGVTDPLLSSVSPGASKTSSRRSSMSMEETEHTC

cells = assay type: functional

SMILES: Cc1ccc(NC(=O)c2ccc(CN3CC(=O)N4CCCCC4C3=O)cc2)c(C)c1 (centres undefined)
- IC50 [1]: 4.47 µM (active)

SMILES: CC(C)N1C(=O)CCC1C(=O)N1CCCc2ccccc21 (centres undefined)
- IC50 [2]: > 100 µM (inactive)
- IC50 [3]: 9.12 µM (active)

SMILES: COc1ccc(-n2c3c(cc(C(=O)NNc4ccccc4)c2=O)C(=O)CC(C)(C)C3)cc1
- EC50 [4]: 1.06 µM (active)

SMILES: O=c1c(Sc2ccccc2)c(C(F)(F)F)[nH]n1-c1ccccc1
- IC50 (Genome polyprotein): 59.5 µM (active)
- IC50 [5]: 22.3 µM (active)
- EC50 [6]: > 53 µM (inactive)
- IC50 [7]: > 20 µM (inactive)

SMILES: CC1CC(C)CN(CCCNC(=O)c2nn(C)c3c2CS(=O)(=O)c2ccccc2-3)C1 (centres undefined)
- EC50 [4]: 0.237 µM (active)

SMILES: O=[N+]([O-])c1ccc(-n2nnnc2-c2ccccc2)c([N+](=O)[O-])c1
- EC50 [8]: 1.75 µM (active)
- EC50 [9]: 4.92 µM (active)
- EC50 [10]: > 60 µM (not active)
- EC50 [11]: 5.3 µM (active)
- CC50 [12]: 19.6 µM (active)
- CC50 [13]: 19.2 µM (active)
- CC50 [14]: 8.41 µM (active)
- EC50 [15]: 9.09 µM (active)
- AC50 [16]: 7.37 µM (active)
- IC50 (cells): 5.22 µM (active)
